We go through 1 molecule from ChEMBL document CHEMBL1126543, “1,24S-dihydroxy-26,27-cyclo-22-yne-vitamin D3: the side chain triple bond analogue of MC 903 (calcipotriol)” (Bioorg Med Chem Lett, 1993).

Active and inactive are the calls of the source. The calls are words filed in the database; no cut-off is given here.

Assay [1] deals with Rattus norvegicus. Briefly: Tested for the effect on calcium homeostasis in rats dosed up to 100 ug/kg daily for 7 days; Compound was found to show no effect. The format is functional, organism-based.
Assay [2] relates to Rattus norvegicus. Description: Tested for the hypercalciuria effect at 0.5 ug/kg by 1,25-(OH)2D3 for 7 days up to 100 ug/kg; compound produced marked hypercalciuria at 0.5 ug/kg. Type of assay: functional, organism-based.

Take `C=C1/C(=C\C=C2/CCC[C@]3(C)[C@@H]([C@H](C)C#C[C@@H](O)C4CC4)CC[C@@H]23)C[C@@H](O)C[C@@H]1O`: the result in the assay with Rattus norvegicus [1] was inactive. For the same molecule, the Activity entry in the assay on Rattus norvegicus [2] was “Marked hypercalciuria at 0.5 ug/kg”.
